Test results taken from patent US9894902B2, “Herbicidal compositions comprising 4-amino-3-chloro-6-(4-chloro-2-fluoro-3-methoxyphenyl)pyridine-2-carboxylic acid or a derivative thereof and picloram or a derivative thereof” (Dow AgroSciences LLC, priority 2013, dated 2018).

How the values were obtained:
Test in all cases: Postemergent herbicidal activity, greenhouse, foliar-applied
Format in all cases: in vivo
Settings in all cases: foliar postemergence
[1] = tested on: CIRAR Cirsium arvense (L.) Scop. (Canada thistle)
Protocol: (§1) Evaluation of Postemergent Herbicidal Activity. Seeds or nutlets of the desired test plant species were planted in Sun Gro Metro-Mix® 360 planting mixture, which typically has a pH of 6.0 to 6.8 and an organic matter content of about 30 percent, in plastic pots with a surface area of 64 square centimeters (cm^2). […] The plants were grown for 7-21 days (d) in a greenhouse with an approximate 15 hour (h) photoperiod which was maintained at about 23-29° C. during the day and 22-28° C. during the night. Nutrients and water were added on a regular basis and supplemental lighting was provided with overhead metal halide 1000-Watt lamps as necessary. The plants were employed for testing when they reached the first or second true leaf stage.
(§2) A weighed amount, determined by the highest rate to be tested, of each test compound was placed in a 25 milliliter (mL) glass vial and was dissolved in 4 mL of a 97:3 volume per volume (v/v) mixture of acetone and dimethyl sulfoxide (DMSO) to obtain concentrated stock solutions. […] The concentrated stock solutions obtained were diluted with 20 mL of an aqueous mixture containing acetone, water, isopropyl alcohol, DMSO, Atplus 411F crop oil concentrate, and Triton® X-155 surfactant in a 48.5:39:10:1.5:1.0:0.02 v/v ratio to obtain spray solutions containing the highest application rates. Additional application rates were obtained by serial dilution of 12 mL of the high rate solution into a solution containing 2 mL of a 97:3 v/v mixture of acetone and DMSO and 10 mL of an aqueous mixture containing acetone, water, isopropyl alcohol, DMSO, Atplus 411F crop oil concentrate, and Triton X-155 surfactant in a 48.5:39:10:1.5:1.0:0.02 v/v ratio to obtain 1/2×, 1/4×, 1/8×and 1/16× rates of the high rate. Compound requirements are based upon a 12 mL application volume at a rate of 187 liters per hectare (L/ha). Formulated compounds were applied to the plant material with an overhead Mandel track sprayer equipped with 8002E nozzles calibrated to deliver 187 L/ha over an application area of 0.503 square meters (m^2) at a spray height of 18 inches ([…]) above the average plant canopy height. Control plants were sprayed in the same manner with the solvent blank.
(§3) Treatments consisted of the methyl ester of 4-amino-3-chloro-6-(4-chloro-2-fluoro-3-methoxyphenyl)pyridine-2-carboxylic acid (Cmpd 1) as technical grade material and picloram (Tordon® 22K) alone and in combination. The form of compound of formula (I) and picloram-potassium salt were applied on an acid equivalent basis.
(§4) The treated plants and control plants were placed in a greenhouse as described above and watered by subirrigation to prevent wash-off of the test compounds. After 14 d, the condition of the test plants as compared with that of the untreated plants was determined visually and scored on a scale of 0 to 100 percent where 0 corresponds to no injury and 100 corresponds to complete kill.
(§5) The values reported are % control visually rated. Colby's equation was used to determine the herbicidal effects expected from the mixtures (Colby, S.R. Calculation of the synergistic and antagonistic response of herbicide combinations. Weeds 1967, 15, 20-22.).
(§6) More specifically, the following equation was used to calculate the expected activity of mixtures containing two active ingredients, A and B: Expected=A+B−(A×B/100) • A=observed efficacy of active ingredient A at the same concentration as used in the mixture; • B=observed efficacy of active ingredient B at the same concentration as used in the mixture.

[2] = tested on: CYPES Cyperus esculentus L. (yellow nutsedge)
Protocol: as §1, §2, §3, §4, §5, §6

[3] = tested on: SETFA Setaria faberi Herrm. (giant foxtail)
Protocol: as §1, §2, §3, §4, §5, §6

[4] = tested on: ABUTH Abutilon theophrasti Medik. (velvetleaf)
Protocol: as §1, §2, §3, §4, §5, §6

[5] = tested on: STEME Stellaria media (L.) Vill. (common chickweed)
Protocol: as §1, §2, §3, §4, §5, §6

[6] = tested on: EPHHL Euphorbia heterophylla L. (wild poinsettia)
Protocol: as §1, §2, §3, §4, §5, §6

[7] = tested on: AMARE Amaranthus retroflexus L. (redroot pigweed)
Protocol: as §1, §2, §3, §4, §5, §6

[8] = tested on: VIOTR Viola tricolor L. (wild violet)
Protocol: as §1, §2, §3, §4, §5, §6

[9] = tested on: BRSNW Brassica napus (winter oilseed rape)
Protocol: as §1, §2, §3, §4, §5, §6

[10] = tested on: GLXMA Glycine max (volunteer soybean)
Protocol: as §1, §2, §3, §4, §5, §6

`COC(=O)c1nc(-c2ccc(Cl)c(OC)c2F)cc(N)c1Cl` [Cmpd I, methyl ester of 4-amino-3-chloro-6-(4-chloro-2-fluoro-3-methoxyphenyl)pyridine-2-carboxylic acid] was tested. Which “Visual Growth reduction (%) 14 Days After Application CIRAR obs” value ([1]; Cmpd I 2.5 g ae/ha alone) did it give?
Its value is 47%.

And the “Visual Growth reduction (%) 14 Days After Application CIRAR obs” value ([1]; Cmpd I 5 g ae/ha alone)?
Its value is 53%.

And the “Visual Growth reduction (%) 14 Days After Application CIRAR obs” value ([1]; Cmpd I 10 g ae/ha alone)?
The value was 65%.

What about the “Visual Growth reduction (%) 14 Days After Application CYPES obs” value ([2]; Cmpd I 2.5 g ae/ha alone) of the same compound?
The value was 20%.

What about the “Visual Growth reduction (%) 14 Days After Application CYPES obs” value ([2]; Cmpd I 5 g ae/ha alone) of the same compound?
The value was 72%.

And the “Visual Growth reduction (%) 14 Days After Application CYPES obs” value ([2]; Cmpd I 10 g ae/ha alone)?
Its value is 96%.

And the “Visual Growth reduction (%) 14 Days After Application SETFA obs” value ([3]; Cmpd I 2.5 g ae/ha alone)?
The value was 0%.

What about the “Visual Growth reduction (%) 14 Days After Application SETFA obs” value ([3]; Cmpd I 5 g ae/ha alone) of the same compound?
Its value is 5%.

What about the “Visual Growth reduction (%) 14 Days After Application SETFA obs” value ([3]; Cmpd I 10 g ae/ha alone) of the same compound?
Its value is 35%.

And the “Visual Growth reduction (%) 14 Days After Application ABUTH obs” value ([4]; Cmpd I 2.5 g ae/ha alone)?
The value was 87%.

And the “Visual Growth reduction (%) 14 Days After Application ABUTH obs” value ([4]; Cmpd I 5 g ae/ha alone)?
Its value is 85%.

And the “Visual Growth reduction (%) 14 Days After Application ABUTH obs” value ([4]; Cmpd I 10 g ae/ha alone)?
Its value is 90%.

What about the “Visual Growth reduction (%) 14 Days After Application STEME obs” value ([5]; Cmpd I 2.5 g ae/ha alone) of the same compound?
Its value is 50%.

And the “Visual Growth reduction (%) 14 Days After Application STEME obs” value ([5]; Cmpd I 5 g ae/ha alone)?
The value was 57%.

And the “Visual Growth reduction (%) 14 Days After Application STEME obs” value ([5]; Cmpd I 10 g ae/ha alone)?
Its value is 72%.

What about the “Visual Growth reduction (%) 14 Days After Application EPHHL obs” value ([6]; Cmpd I 2.5 g ae/ha alone) of the same compound?
Its value is 85%.

And the “Visual Growth reduction (%) 14 Days After Application EPHHL obs” value ([6]; Cmpd I 5 g ae/ha alone)?
The value was 93%.

What about the “Visual Growth reduction (%) 14 Days After Application EPHHL obs” value ([6]; Cmpd I 10 g ae/ha alone) of the same compound?
The value was 100%.

What about the “Visual Growth reduction (%) 14 Days After Application AMARE obs” value ([7]; Cmpd I 2.5 g ae/ha alone) of the same compound?
The value was 50%.

And the “Visual Growth reduction (%) 14 Days After Application AMARE obs” value ([7]; Cmpd I 5 g ae/ha alone)?
Its value is 58%.

And the “Visual Growth reduction (%) 14 Days After Application AMARE obs” value ([7]; Cmpd I 10 g ae/ha alone)?
Its value is 77%.

What about the “Visual Growth reduction (%) 14 Days After Application VIOTR obs” value ([8]; Cmpd I 2.5 g ae/ha alone) of the same compound?
Its value is 30%.

What about the “Visual Growth reduction (%) 14 Days After Application VIOTR obs” value ([8]; Cmpd I 5 g ae/ha alone) of the same compound?
Its value is 43%.

And the “Visual Growth reduction (%) 14 Days After Application VIOTR obs” value ([8]; Cmpd I 10 g ae/ha alone)?
Its value is 62%.

And the “Visual Growth reduction (%) 14 Days After Application BRSNW obs” value ([9]; Cmpd I 2.5 g ae/ha alone)?
The value was 0%.

And the “Visual Growth reduction (%) 14 Days After Application BRSNW obs” value ([9]; Cmpd I 5 g ae/ha alone)?
Its value is 0%.

And the “Visual Growth reduction (%) 14 Days After Application BRSNW obs” value ([9]; Cmpd I 10 g ae/ha alone)?
Its value is 10%.

What about the “Visual Growth reduction (%) 14 Days After Application GLXMA obs” value ([10]; Cmpd I 2.5 g ae/ha alone) of the same compound?
Its value is 80%.

And the “Visual Growth reduction (%) 14 Days After Application GLXMA obs” value ([10]; Cmpd I 5 g ae/ha alone)?
Its value is 87%.

What about the “Visual Growth reduction (%) 14 Days After Application GLXMA obs” value ([10]; Cmpd I 10 g ae/ha alone) of the same compound?
Its value is 100%.

Which results are given for `Nc1c(Cl)c(Cl)nc(C(=O)O)c1Cl` [Picloram, 4-amino-3,5,6-trichloro-2-pyridinecarboxylic acid]?
Visual Growth reduction (%) 14 Days After Application CIRAR obs ([1]; Picloram 12 g ae/ha alone): 65%; Visual Growth reduction (%) 14 Days After Application CIRAR obs ([1]; Picloram 24 g ae/ha alone): 82%; Visual Growth reduction (%) 14 Days After Application CYPES obs ([2]; Picloram 12 g ae/ha alone): 0%; Visual Growth reduction (%) 14 Days After Application CYPES obs ([2]; Picloram 24 g ae/ha alone): 0%; Visual Growth reduction (%) 14 Days After Application SETFA obs ([3]; Picloram 12 g ae/ha alone): 0%; Visual Growth reduction (%) 14 Days After Application SETFA obs ([3]; Picloram 24 g ae/ha alone): 0%; Visual Growth reduction (%) 14 Days After Application ABUTH obs ([4]; Picloram 12 g ae/ha alone): 25%; Visual Growth reduction (%) 14 Days After Application ABUTH obs ([4]; Picloram 24 g ae/ha alone): 15%; Visual Growth reduction (%) 14 Days After Application STEME obs ([5]; Picloram 12 g ae/ha alone): 27%; Visual Growth reduction (%) 14 Days After Application STEME obs ([5]; Picloram 24 g ae/ha alone): 17%; Visual Growth reduction (%) 14 Days After Application EPHHL obs ([6]; Picloram 12 g ae/ha alone): 62%; Visual Growth reduction (%) 14 Days After Application EPHHL obs ([6]; Picloram 24 g ae/ha alone): 65%; Visual Growth reduction (%) 14 Days After Application AMARE obs ([7]; Picloram 12 g ae/ha alone): 63%; Visual Growth reduction (%) 14 Days After Application AMARE obs ([7]; Picloram 24 g ae/ha alone): 63%; Visual Growth reduction (%) 14 Days After Application VIOTR obs ([8]; Picloram 12 g ae/ha alone): 0%; Visual Growth reduction (%) 14 Days After Application VIOTR obs ([8]; Picloram 24 g ae/ha alone): 3%; Visual Growth reduction (%) 14 Days After Application BRSNW obs ([9]; Picloram 12 g ae/ha alone): 13%; Visual Growth reduction (%) 14 Days After Application BRSNW obs ([9]; Picloram 24 g ae/ha alone): 20%; Visual Growth reduction (%) 14 Days After Application GLXMA obs ([10]; Picloram 12 g ae/ha alone): 73%; Visual Growth reduction (%) 14 Days After Application GLXMA obs ([10]; Picloram 24 g ae/ha alone): 82%
